Test results as given in publication PMC8321398, “The discovery of a novel series of compounds with single-dose efficacy against juvenile and adult Schistosoma species” (PLoS Neglected Tropical Diseases, 2021).

Tests used:
HepG2 cells = experiment: Cytotoxicity, HepG2 cells with MTT; assay type: cell-based, human; details: Table 2; hepG2 cell line, 72 h incubation
Procedure: Activity against mammalian cells was determined using either of two standard assays. The first of these used MRC-5 cells with Alamar blue staining as previously described. The second used HepG2 cells monitored using 3-(4,5-dimethylthiazol-2-yl)-2,5-diphenyltetrazolium bromide (MTT) as previously described.

[1] = Metabolic stability in human hepatocytes; assay type: in vitro ADME; details: hepatocytes (suspension); for remaining at 0.5 h, 1 µM: pH 7.4, 30 min incubation, read-out: Human hepatocyte % remaining at 30 min; for remaining at 1.5 h, 1 µM: pH 7.4, 90 min incubation, read-out: Human hepatocyte % remaining at 90 min
Procedure: 100 μM compound stock solution was prepared from 5 μL of 4 mM stock in DMSO + 195 μL MeCN. Working solution (2 μM compound) was prepared using 10 μL of 100 μM stock + 490 μL buffer pH 7.4 (KHB supplemented with CaCl2, NaHCO3, HEPES, fructose, glycine; pH 7.4).
Working solution (25 μL, 2 μM) was added in duplicate to wells in a 0.5 mL per well, 96 well plate which was preincubated to reach 37°C. Hepatocyte suspension (25 μL) was added to each plate, and the plate incubated (37°C, 95% relative humidity with 5% CO2 supply) under gentle mixing (Thermomixer @300 rpm). After designated time periods, ice-cold MeCN (250 μL) was added with a suitable standard. For T = 0 min, ice-cold MeCN (250 μL) with suitable standard was added to the working solution (2 μM) and hepatocyte suspension (25 μL) added. The plates for each time point were shaken, sonicated for 5 mins and kept at 4°C until the final plate was processed. The plates were centrifuged at 4,000 rpm for 20 min, supernatant (110 μL) was mixed with water (110 μL) and the samples analysed using LC-MS/MS.

[2] = tested on: S. mansoni juvenile worms; experiment: In vivo efficacy, mouse model of juvenile (21-day old) S. mansoni infection; details: for efficacy in vivo against juvenile worm infection: 21-day old infections, single oral dose, Aqueous formulation (Fig 8); for Worms remaining: Juvenile infection; for in vivo EC50 against juvenile worms: mouse model, single oral dose (Fig 9C); for clearing juvenile worm infections in vivo: 12.5 mg/kg oral single dose (Fig 9D); for worm reduction: juvenile worms
Procedure: Prior to in vivo efficacy experiments, a single animal was given a dose of drug (using the same formulation) that was twice as large as that planned for use in the efficacy experiments and was observed periodically for adverse clinical signs for 24h by trained veterinarians. Adverse clinical signs checked include postural defect, vocalization, oculo-nasal discharge, hypersalivation, change in activity, abnormal gait, respiration and pulse, piloerection, loss of pupillary reflex, eyelid reflex, chromodacryorrhea, reaction to handling, tremor, convulsions, prostration, diarrhoea, cachexia, emaciation. […] In vivo efficacy was assessed in female CD1 mice using methods based on those previously described. Mice were infected subcutaneously with 150 cercariae. Test compounds were suspended in 7% Tween-80 / 3% Ethanol / double distilled water and drug dispersal was facilitated by vortexing and using a sonicating water bath (Formulation “Aqueous”). Alternatively, drugs were first dissolved in DMSO, then diluted with corn oil to give a 1:19 DMSO:corn oil solution/suspension of test compound (Formulation “Corn oil”). Dosing was by oral gavage. Mice in the negative control groups were given the drug suspension vehicle only. Positive controls for treatment of adult, day 42 old, infections were treated with PZQ and those for juvenile, day 21 old, infections with artemether, which unlike PZQ is effective against the juvenile worm infections in mice. During and following treatment, mice were closely observed for any ill effects by staff experienced in animal handling. This involved individuals who were blinded to the treatment groups. Effects they were trained to look for included hunching, immobility, piloerection, subdued behaviour, diarrhoea and loss of body condition. None were seen. Worms were recovered by portal perfusion with citrate saline 8–14 days post treatment and counted. Differences between groups relative to the non-drug treated controls were assessed for statistical significance by Student’s unpaired t-test using GraphPad Prism Software. P values are presented as follows:- ns–P > 0.05 (not significant), * P ≤ 0.05, ** P ≤ 0.01, *** P ≤ 0.001, **** P ≤ 0.0001.
For pharmacokinetic analysis during the in vivo efficacy experiments individual animals were only sampled once. Samples were taken from one animal in each experimental group at each of 1, 4, 8 h and samples from two animals in each group were taken at 24 h.

[3] = Human dose prediction with the PK Tool; details: for human single oral dose prediction: PK Tool, predicted plasma conc at 24 h 7 fold above calculated adult worm blood potency
From the text: • We assume that the plasma concentration achieved in mouse sufficient to kill worms is the same as the plasma concentration we need to achieve in humans to see the same effect. A component element is an assumption that the mechanism of S. mansoni worm reduction in mouse and human are the same. • We assume that allometric scaling can be used to estimate human clearance based on mouse clearance. One factor that would make this assumption unsafe is if the clearance mechanisms and rates for our series in mouse and human were different. Fortunately, in vivo clearance correlates well with metabolic stability calculated from in vitro mouse hepatocyte measurements (Fig 7A). In vitro stability estimates in mouse and human hepatocytes are also fairly well correlated (Fig 7B).
Estimates of dose prediction in human were made using the PK Tool. A simple estimate of an effective human dose for LSHTM-3520 can be made by making the assumption that a plasma concentration of 2,000 ng/mL 24 h after oral administration (the same as that achieved in Fig 6B) would give sufficient clinical efficacy. […] To design compounds with a lower predicted human dose we pursued two strategies, one to improve potency by optimisation of the core and substituents, the other to decrease clearance through blocking positions we thought likely to be vulnerable to metabolic enzymes and/or conformational restriction.
Assuming linear kinetics the plasma levels scaled from the low-dose oral PK experiment (2.5 mg/kg) for LSHTM-3520 (8 ng/mL) after 24 h would be 160 ng/mL from […] and 640 ng/mL at […].

[4] = Plasma protein binding in human plasma at 10 uM, equilibrium dialysis; assay type: in vitro ADME; details: for recovery at 6 h, 10 µM: human, human plasma, pH 7.4
Procedure: (§1) Each experiment was performed in duplicate for the compound being tested. A working solution of compound was prepared from 10 μL of 10 mM solution in DMSO + 190 μL 40:60 MeCN:Water. A Total solution was prepared from 12 μL of working solution + 588 μL plasma (compound conc: 10 μM, DMSO: 0.1%, ACN:0.76%). In an equilibrium dialysis chamber, Total solution (200 μL) was added to the plasma chamber and PBS pH 7.4 (350 μL) was added to the buffer chamber. The chamber was then incubated at 37°C for 6 h with constant shaking at 400 rpm (Thermomixer comfort, Eppendorf). Aliquots were removed from both plasma and buffer chambers and the following test samples prepared: Blank: blank Plasma (20 μL) + blank buffer (60 μL), Buffer: blank plasma (20 μL) + test buffer (60 μL), Plasma: test plasma (20 μL) + blank buffer (60 μL), Total: total sample (20 μL) + blank buffer (60 μL). Ice-cold acetonitrile (160 μL), containing a suitable standard was added to all samples, they were shaken vigorously and centrifuged at 4,000 rpm for 20 min at 15°C. Supernatant (110 μL) from each sample was diluted with water (110 μL) and the sample analysed by LC-MS/MS.
(§2) % Free = 100 × (AREA in buffer × dilution factor)/(AREA in Plasma × dilution factor)
(§3) % Recovery = 100 ×[(Avg AREA in buffer × dilution factor) + (Avg AREA in Plasma × dilution factor)] / (Avg AREA in Total × dilution factor)

[5] = Plasma protein binding in mouse plasma at 10 uM, equilibrium dialysis; assay type: in vitro ADME; details: for recovery at 6 h, 10 µM: mouse, mouse plasma, pH 7.4
Procedure: as §1, §2, §3

[6] = mouse, oral 50 mg/kg, formulation Aq
[7] = mouse, oral 12.5 mg/kg, formulation corn oil

| remaining at 0.5 h, 1 µM [1] | remaining at 1.5 h, 1 µM [1] | human single oral dose prediction [3] | Human plasma protein %binding [4] | recovery at 6 h, 10 µM [4] | Mouse plasma protein %binding [5] | recovery at 6 h, 10 µM [5] | in vivo EC50 against juvenile worms [2] | Compound | Cytotox TC50 (HepG2 cells) | efficacy in vivo against juvenile worm infection ([2]; mouse) | Worms remaining [2, 6] | clearing juvenile worm infections in vivo ([2]; mouse) | Worms remaining [2, 7] | also measured |
| --- | --- | --- | --- | --- | --- | --- | --- | --- | --- | --- | --- | --- | --- | --- |
| 99% | 98% | 6 mg/kg | 99.9973% | 92.4% | 99.9858% | 94.5% |  | CC(C)c1nc2cnc(-c3ccc(F)c(C(F)(F)F)c3)cn2c1-c1ccc2[nH]ncc2c1F [LSHTM-3604] | 12,000 nM | effective | 12% |  |  | Worms remaining ([2]; mouse, oral 25 mg/kg, formulation corn oil): 13% |
| 52% |  | 25 mg/kg | 99.9895% | 97.1% | 99.97% | 91.5% |  | CC(C)c1nc2cnc(-c3ccc(F)c(C(F)(F)F)c3)cn2c1-c1c(F)cc(O)cc1F [LSHTM-3520] | 7,130 nM | effective | 62% |  |  | Worms remaining ([2]; mouse, oral 200 mg/kg, formulation Aq): 16%; predicted single human oral dose (simple estimate) ([3]; target 2,000 ng/mL at 24 h, allometric scaling from mouse, exponent 0.75): 48 mg/kg |
|  | 105% | 3.5 mg/kg | 100% | 85.8% | 100% | 96.9% | below 6.25 mg/kg | Fc1ccc(-c2cn3c(-c4ccc5[nH]ncc5c4F)c(C(F)(F)F)nc3cn2)cc1C(F)(F)C(F)(F)F [LSHTM-3645] | 11,700 nM |  |  | extremely effective | 0% | Worms remaining ([2]; mouse, oral 6.25 mg/kg, formulation corn oil): 1.8%; worm reduction ([2]; mouse, single oral dose 6.25 mg/kg): 98% |
|  | 98% | 2.5 mg/kg | 100% | 97.8% | 99.9195% | 80.8% | below 6.25 mg/kg | Fc1c(-c2c(C(F)(F)F)nc3cnc(-c4cccc(C(F)(F)C(F)(F)F)c4)cn23)ccc2[nH]ncc12 [LSHTM-3608] | 10,900 nM |  |  | extremely effective | 0% | worm reduction ([2]; mouse, single oral dose 12.5 mg/kg): 100% |
|  | 105% | 20 mg/kg | 99.9895% | 97.4% | 99.9915% | 92.1% |  | Fc1ccc(-c2cn3c(-c4ccc5[nH]ncc5c4F)c(C(F)(F)F)nc3cn2)cc1C(F)(F)F [LSHTM-3642, 3-(4-fluoro-1H-indazol-5-yl)-6-(4-fluoro-3-(trifluoromethyl)phenyl)-2-(trifluoromethyl)imidazo[1,2-a]pyrazine] | 16,600 nM |  |  |  | 5% | Worms remaining ([2]; mouse, oral 25 mg/kg, formulation Aq): 1.8% |
|  | 75% | 1 mg/kg | 99.998% | 62.7% | 99.997% | 76.1% |  | CC(C)c1cc(-c2cn3c(-c4ccc5[nH]ncc5c4F)c(C4CC4)nc3cn2)ccc1F [LSHTM-3686] | 15,800 nM |  |  |  |  | Worms remaining ([2]; mouse, oral 6.25x2 mg/kg (12 h apart), formulation corn oil): 25%; worm burden reduction ([2]; mouse, juvenile infection, 6.25 mg/kg given twice 12 h apart): 75% |
